Laboratory results as given in BindingDB's records for doi:10.1021/jm00394a022 (Pennsylvania State University, 1987).

Assays:
[1] = molecular target: Glutamine synthetase (Pisum sativum); assay: Compound was evaluated for binding affinity by the inhibition of Glutamine synthetase (Pea seed) activity using biosynthetic assay [noncompetitive inhibition]
[2] = molecular target: Glutamine synthetase (Ovis aries); assay: Compound was evaluated for binding affinity by the inhibition of Glutamine synthetase (Ovine brain) activity using biosynthetic assay [competitive inhibition]
[3] = molecular target: Glutamine synthetase (Escherichia coli) (UniProt P0A9C5); assay: Compound was evaluated for binding affinity by the inhibition of Glutamine synthetase (Escherichia coli) activity using biosynthetic assay [mixed Non-competitive inhibition]
Sequence of Glutamine synthetase (Escherichia coli) (P0A9C5 whole entry, looked up): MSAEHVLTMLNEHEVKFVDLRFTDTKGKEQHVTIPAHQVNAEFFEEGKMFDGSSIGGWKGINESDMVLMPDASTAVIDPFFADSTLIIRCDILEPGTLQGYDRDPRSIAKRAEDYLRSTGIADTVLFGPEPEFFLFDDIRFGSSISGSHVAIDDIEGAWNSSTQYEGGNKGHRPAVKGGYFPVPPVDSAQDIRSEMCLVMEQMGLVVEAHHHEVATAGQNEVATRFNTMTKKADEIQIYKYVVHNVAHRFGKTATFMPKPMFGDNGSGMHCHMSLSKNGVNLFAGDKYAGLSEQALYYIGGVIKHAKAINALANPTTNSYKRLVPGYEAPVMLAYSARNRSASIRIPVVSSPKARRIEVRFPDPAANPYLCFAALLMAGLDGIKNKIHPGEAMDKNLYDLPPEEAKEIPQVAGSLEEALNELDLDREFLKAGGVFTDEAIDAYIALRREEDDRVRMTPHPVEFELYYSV

Ki [1]: 250 µM
Ki [2]: 750 µM
Ki [3]: 75 µM
Structure (SMILES): NC(CCP(=O)(O)CP(=O)(O)O)C(=O)O (stereo not drawn) [2-ammonio-4-[hydroxy(phosphonomethyl)phosphoryl]butanoate]
